In series [1] the test system is Candida albicans, Trichophyton spp., Epidermophyton spp., and Aspergillus spp. As to conditions: cited from earlier work.
Series [2] relates to Candida spp., Aspergillus spp., Sporothrix schenckii, Penicillium marneffei, Malassezia furfur, Cryptococcus neoformans, Trichosporon spp. and …. As to conditions: against most of the listed species; cited from earlier work.
The subject of series [3] is ACL injured guinea pig knees (osteoarthritis). Kind of series: Inhibition of cartilage damage in the ACL injured Hartley guinea pig model of osteoarthritis. The following applies: hyaluronic acid formulation; low dose (dose 1) and medium dose (dose 2); 5 weekly intra-articular injections; ten weeks after injury. Type of series: in vivo, Hartley guinea pigs. The source says:
The skin on the right knee was sterilized. A 20G needle was introduced in the knee joint using a medial approach and the anterior cruciate ligament was cut with the sharp end of the needle.
Two weeks after the initial procedure, the animals were anesthetized with isoflurane (5% induction −2% maintenance) and weighed. […] The skin of the injured knee was sterilised. […] Injections were repeated weekly for a total of 5 injections. Sample size was N=12 for each formulation. Two doses of paclitaxel and control formulation were tested.
A final knee measurement was taken. The skin over the knee area was removed without damaging subcutaneous tissues. The knee joints were then harvested en bloc and placed into a formaldehyde (37%)/acetic acid solution (5:1 ratio) for fixation. Samples were sent to an independent laboratory for the conduct of histological preparation of joints and assessment by a pathologist for signs of cartilage damage.
Briefly knee sections were made to examine cartilage and slides were stained with H&E stain. […] Bar graphs were constructed from each group and compared.

The test system of the next series is MMP-3 (stromelysin). Kind of series: IL-1 induced MMP-3 (stromelysin) mRNA expression in chondrocytes, Northern blot. The series is classed as cell-based. On the procedure: (§1) Cells were treated with paclitaxel at various concentrations (10^−7 to 10^−5 M) for 24 hours, then treated with IL-1β (20 ng/ml) for additional 18 hours in the presence of paclitaxel. Total RNA was isolated, and the MMP-1 mRNA levels were determined by Northern blot analysis. The blots were subsequently stripped and reprobed with ^32P-radiolabeled rat GAPDH cDNA, which was used as a housekeeping gene. […] Quantitation of collagenase-1 and stromelysin-expression mRNA levels were conducted. The MMP-1 and MMP-3 expression levels were normalized with GAPDH.

In a further series the test system is cartilage. As to the kind of experiment: Hartley guinea pig knees with ACL damage, joint and cartilage score (FIG. 7, 8). The series is classed as in vivo.
The test system of series [4] is collagenase and stromelysin. Kind of series: IL-1 induced collagenase and stromelysin RNA levels in chondrocytes (FIG. 4, 5). The series is classed as cell-based. As to conditions: pretreatment.
Series [5] deals with AP-1. Kind of series: IL-1 stimulated AP-1 transcriptional activity (AP-1 driven CAT reporter gene) in transfected chondrocytes. Type of series: cell-based. The following applies: paclitaxel 10^−7 to 10^−5 M, concentration dependent; IL-1 50 ng/ml, 24 hours. Here is the method:
Chondrocytes were transfected with constructs containing an AP-1 driven CAT reporter gene, and stimulated with IL-1, IL-1 (50 ng/ml) was added and incubated for 24 hours in the absence and presence of paclitaxel at various concentrations. […] The data noted with an asterisk (*) have significance compared with IL-1-induced CAT activity according to a t-test, P<0.05. The results shown are representative of three independent experiments.

Series [6] has as its system AP-1. Kind of series: IL-1 induced AP-1 DNA binding activity, gel mobility shift assay with chondrocyte extracts. Type of series: cell-based. As to conditions: chondrocytes pretreated with paclitaxel 10^−7 to 10^−5 M for 24 hours. On the procedure: Binding activity was assayed with a radiolabeled human AP-1 sequence probe and gel mobility shift assay. Extracts from chondrocytes untreated or treated with various amounts of paclitaxel (10^−7to 10^−5 M) followed by IL-1β (20 ng/ml) were incubated with excess probe on ice for 30 minutes, followed by non-denaturing gel electrophoresis. The “com” lane contains excess unlabeled AP-1 oligonucleotide. The results shown are representative of three independent experiments.

The test system of series [7] is AP-1. As to the kind of experiment: IL-1 induced AP-1 binding activity in chondrocyte lysates (FIG. 3). The following applies: lysates from chondrocytes pretreated with paclitaxel. Type of series: cell-based.
Series [8] relates to knee joint (synovial cavity). Kind of series: Maximum tolerated dose (MTD) of a drug after intra-articular injection. As to conditions: for MTD (dose for which knee inflammation was not observed): 0.1 mL intra-articular.
Method: Male Hartley guinea pigs, at least 6 weeks old, were anaesthetized using 5% isoflurane in an enclosed chamber. The animals were weighed and then transferred to the surgical table where anesthesia was maintained by nose cone with 2% isoflurane. The knee area on both legs was shaved and knee width at the head of the femur was measured on both knees. The skin on the right knee was sterilized. A 25G needle was introduced into the synovial cavity using a medial approach and 0.1 mL of the test formulation was injected. Three or seven days after the injection, the animals were sacrificed by cardiac injection of 0.7 mL Euthanyl under deep anesthesia (5% isoflurane). Sample size was N=3 for each formulation.
Knee function was assessed before sacrifice by recording changes in walking behavior and signs of tenderness. The animal was weighed immediately after sacrifice. The width of both knees at the head of the femur was then measured with calipers. The knee joint was dissected open by transecting the quadriceps tendon, cutting through the lateral and medial articular capsule and flipping the patella over the tibia. Knee inflammation was assessed by recording signs of swelling, vascularization, fluid accumulation and change in color in subcutaneous tissue as well as inner joint structures. Photographs were taken to document findings. All data was recorded by observers blinded to the treatment groups.
The subject of another series is MMP-1 (collagenase-1). Kind of series: IL-1 induced MMP-1 (collagenase) mRNA expression in chondrocytes, Northern blot. Type of series: cell-based. Here is the method: as §1
In series [9] the test system is Chick Chorioallantoic Membrane (CAM). As to the kind of experiment: Chick chorioallantoic membrane (CAM) angiogenesis assay. The series is classed as in vivo. As to conditions: for Inhibition/n: 48 hours exposure. Here is the method: Fertilized, domestic chick embryos were incubated for 3 days prior to shell-less culturing. In this procedure, the egg contents were emptied by removing the shell located around the air space. The interior shell membrane was then severed and the opposite end of the shell was perforated to allow the contents of the egg to gently slide out from the blunted end. The egg contents were emptied into round-bottom sterilized glass bowls and covered with petri dish covers. These were then placed into an incubator at 90% relative humidity and 3% CO2 and incubated for 3 days.
Paclitaxel (Sigma, St. Louis, […].) was mixed at concentrations of 0.25, 0.5, 1, 5, 10, 30 μg per 10 ul aliquot of 0.5% aqueous methylcellulose. […] Ten microliter aliquots of this solution were dried on parafilm for 1 hour forming disks 2 mm in diameter. The dried disks containing paclitaxel were then carefully placed at the growing edge of each CAM at day 6 of incubation. Controls were obtained by placing paclitaxel-free methylcellulose disks on the CAMs over the same time course. After a 2 day exposure (day 8 of incubation) the vasculature was examined with the aid of a stereomicroscope. Liposyn II, a white opaque solution, was injected into the CAM to increase the visibility of the vascular details. The vasculature of unstained, living embryos were imaged using a Zeiss stereomicroscope which was interfaced with a video camera (Dage-MTI Inc., Michigan City, Ind.). […] Image negatives were then made on a graphics recorder (Model 3000; Matrix Instruments, Orangeburg, N.Y.).
The membranes of the 8 day-old shell-less embryo were flooded with 2% glutaraldehyde in 0.1 M sodium cacodylate buffer; additional fixative was injected under the CAM. After 10 minutes in situ, the CAM was removed and placed into fresh fixative for 2 hours at room temperature. The tissue was then washed overnight in cacodylate buffer containing 6% sucrose. The areas of interest were postfixed in 1% osmium tetroxide for 1.5 hours at 4° C. The tissues were then dehydrated in a graded series of ethanols, solvent exchanged with propylene oxide, and embedded in Spurr resin. Thin sections were cut with a diamond knife, placed on copper grids, stained, and examined in a Joel 1200EX electron microscope. Similarly, […] sections were cut and stained with […] for light microscopy.
At day 11 of development, chick embryos were used for the corrosion casting technique. Mercox resin (Ted Pella, Inc., Redding, Calif.) was injected into the CAM vasculature using a 30-gauge hypodermic needle. […] After injection, the plastic was allowed to sit in situ for an hour at room temperature and then overnight in an oven at 65° C. The CAM was then placed in 50% aqueous solution of sodium hydroxide to digest all organic components. The plastic casts were washed extensively in distilled water, air-dried, coated with gold/palladium, and viewed with the Philips 501B scanning electron microscope.
After 48 hours exposure to paclitaxel at concentrations of 0.25, 0.5, 1, 5, 10, or 30 μg, each CAM was examined under living conditions with a stereomicroscope equipped with a video/computer interface in order to evaluate the effects on angiogenesis. This imaging setup was used at a magnification of 160× which permitted the direct visualization of blood cells within the capillaries; thereby blood flow in areas of interest may be easily assessed and recorded. For this study, the inhibition of angiogenesis was defined as an area of the CAM (measuring 2-6 mm in diameter) lacking a capillary network and vascular blood flow. Throughout the experiments, avascular zones were assessed on a 4 point avascular gradient (see the table below). This scale represents the degree of overall inhibition with maximal inhibition represented as a 3 on the avascular gradient scale. Paclitaxel was very consistent and induced a maximal avascular zone (6 mm in diameter or a 3 on the avascular gradient scale) within 48 hours depending on its concentration. […]

In series [10] the test system is phosphatases of regenerating liver (PRL). As to conditions: cited from earlier work.
Another series deals with endo-exonuclease. The following applies: PCT Publication No. WO 01/35935; cited from earlier work.
For series [11], the target named is protein tyrosine phosphatase 1B (PTP1B) (Homo sapiens, UniProt P18031). As to conditions: cited from earlier work.
Sequence of protein tyrosine phosphatase 1B (PTP1B) (P18031 whole entry): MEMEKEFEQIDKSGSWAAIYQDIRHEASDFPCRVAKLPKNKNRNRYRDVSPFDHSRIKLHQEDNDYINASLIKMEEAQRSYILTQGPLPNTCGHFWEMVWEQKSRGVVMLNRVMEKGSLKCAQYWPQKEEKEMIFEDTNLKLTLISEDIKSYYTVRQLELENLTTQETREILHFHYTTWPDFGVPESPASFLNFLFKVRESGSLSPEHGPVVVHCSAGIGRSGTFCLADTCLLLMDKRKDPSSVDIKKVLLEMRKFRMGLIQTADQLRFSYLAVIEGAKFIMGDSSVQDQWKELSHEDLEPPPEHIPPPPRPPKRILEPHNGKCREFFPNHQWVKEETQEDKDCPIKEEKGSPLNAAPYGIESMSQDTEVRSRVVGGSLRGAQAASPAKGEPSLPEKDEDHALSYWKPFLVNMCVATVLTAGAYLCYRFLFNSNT
The conditions of series [12]: in vivo; cited from earlier work.
The conditions of series [13]: in vivo; cited from earlier work. This is another data set of the same source.
Setting [14] is: 10^−5 M paclitaxel, pretreatment 24 hours.

On to `Cc1cc(C2CCCCC2)n(O)c(=O)c1` [Ciclopirox, ciclopirox], for which, in [1], the antifungal activity result was “fungistatic and fungicidal”.
Regarding `CN(C/C=C/C#CC(C)(C)C)Cc1cccc2ccccc12.Cl` [terbinafine, terbinafine hydrochloride], the “in vitro antifungal activity” value in series [2] is “has activity”.
`CC(=O)O[C@H]1C(=O)[C@@]2(C)[C@H]([C@H](OC(=O)c3ccccc3)[C@]3(O)C[C@H](OC(=O)[C@H](O)[C@@H](NC(=O)c4ccccc4)c4ccccc4)C(C)=C1C3(C)C)[C@]1(OC(C)=O)CO[C@@H]1C[C@@H]2O` [paclitaxel]: in series [3], the “cartilage damage (pathologist score)” value was “statistical reduction in cartilage damage relative to control”. Further, the “IL-1 induced stromelysin mRNA levels” value in the series on MMP-3 (stromelysin) (setting [14]) is given as “complete inhibition”. Further, the “concentration capable of inhibiting stromelysin expression in vitro” value in the series on MMP-3 (stromelysin) (chondrocytes) is on record as 10^−6 M. In the series on cartilage (Hartley guinea pig knees with ACL damage, p<0.02), the “average rank of joint scores, dose response trend” value is recorded as “statistically significant”. Moreover, the “cartilage in knee cross section” value in the series on cartilage (dose 1 (low dose)) is given as “fraying of cartilage”; with cartilage (dose 2 (medium dose)), “minor defects to cartilage”. In addition, in series [4], the “IL-1 induction of collagenase and stromelysin RNA levels” value is reported as “can be inhibited”. In addition, the “IL-1 induced AP-1 reporter gene CAT activity” value with AP-1 [5] is on record as “reduced IL-1 induced AP-1 reporter gene CAT activity”. For the same compound, the “IL-1 induced AP-1 binding to oligonucleotides” value in the series on AP-1 [6] was “IL-1 induced binding activity decreased”. In addition, the “IL-1 induced binding activity” value with AP-1 [7] is “decreased”. Moreover, the “MTD (dose for which knee inflammation was not observed)” value in series [8] (co-solvent formulation, 3 day evaluation) was found to be 1.5 mg/mL; in series [8] (triblock gel formulation according to Example 34, evaluation at 7 days) it was 0.075 mg/mL. For the same compound, in series [8] (triblock gel formulation, evaluation after three days), the tolerated doses entry is “up to 0.15 mg/ml”. The “IL-1 induced collagenase mRNA levels” value in the series with MMP-1 (collagenase-1) (setting [14]) was “complete inhibition”. The “concentration capable of inhibiting collagenase expression in vitro” value in the series with MMP-1 (collagenase-1) (chondrocytes) was 10^−6 M. In addition, the Inhibition/n was 2/11 in series [9] (0.25 ug in methylcellulose (10 ul)); 6/11 in series [9] (0.5 ug in methylcellulose (10 ul)); 6/15 in series [9] (1 ug in methylcellulose (10 ul)); 20/27 in series [9] (5 ug in methylcellulose (10 ul)); 16/21 in [9] (10 ug in methylcellulose (10 ul)); 31/31 in series [9] (30 ug in methylcellulose (10 ul)). Besides, the “maximal avascular zone on the avascular gradient scale” value in series [9] (within 48 hours depending on concentration) worked out at 3.
Turning to `N=C(N)c1ccc(OCCCCCOc2ccc(C(=N)N)cc2)cc1` [pentamidine], in series [10], the “inhibition of oncogenic phosphatases of regenerating liver” value is “potent inhibitor”. Also, the “inhibition of the activity of endo-exonuclease” value in the series on endo-exonuclease is listed as “inhibit the activity”. Further, the “inhibition of PTP1B” value in series [11] is reported as “effective inhibitor”.
`CN(C)/N=N/c1[nH]cnc1C(N)=O` [Dacarbazine, dacarbazine]: the “absorption from the GI tract” value in [12] is recorded as “poorly absorbed”.
With `O=C(Nc1ccc([N+](=O)[O-])cc1Cl)c1cc(Cl)ccc1O` [Niclosamide, niclosamide], the toxicity in mammals result in series [13] is given as “very low toxicity”.
